Reference: patent publication US20200247761A1, “SULFONAMIDE OR AMIDE COMPOUNDS, COMPOSITIONS AND METHODS FOR THE PROPHYLAXIS AND/OR TREATMENT OF AUTOIMMUNE, INFLAMMATION OR INFECTION RELATED DISORDERS” (TAIWANJ PHARMACEUTICALS CO., LTD, priority 2017, published 2020)
Read-outs that look alike come from different tables or passages of the source.

What was measured:
Format in all cases: cell-based
[1] = biological target: T1, Toll-like receptor 4 (TLR4) (Homo sapiens, UniProt O00206); assay: TLR4 activity: NF-κB-inducible SEAP reporter in LPS-stimulated TLR4-expressing HEK293 cells; conditions: for inhibition at 10 µM: Test Con. 10 μM; for inhibition at 10 µM / inhibition at 20 µM / inhibition at 100 µM: LPS 10 ng/ml, 16-24 hours, HEK293 cells expressing TLR4, read-out: TLR-4 inhibition (%) mean; for activity towards TLR-4 (in words): summary of Table 1 (10, 20 or 100 μM); for inhibition at 20 µM: Test Con. 20 μM; for inhibition at 100 µM: Test Con. 100 μM
T1 construct: expressed in transfected cells; host or cells: HEK293 cells engineered to express TLR4
T1 sequence (O00206 24-839, species assumed): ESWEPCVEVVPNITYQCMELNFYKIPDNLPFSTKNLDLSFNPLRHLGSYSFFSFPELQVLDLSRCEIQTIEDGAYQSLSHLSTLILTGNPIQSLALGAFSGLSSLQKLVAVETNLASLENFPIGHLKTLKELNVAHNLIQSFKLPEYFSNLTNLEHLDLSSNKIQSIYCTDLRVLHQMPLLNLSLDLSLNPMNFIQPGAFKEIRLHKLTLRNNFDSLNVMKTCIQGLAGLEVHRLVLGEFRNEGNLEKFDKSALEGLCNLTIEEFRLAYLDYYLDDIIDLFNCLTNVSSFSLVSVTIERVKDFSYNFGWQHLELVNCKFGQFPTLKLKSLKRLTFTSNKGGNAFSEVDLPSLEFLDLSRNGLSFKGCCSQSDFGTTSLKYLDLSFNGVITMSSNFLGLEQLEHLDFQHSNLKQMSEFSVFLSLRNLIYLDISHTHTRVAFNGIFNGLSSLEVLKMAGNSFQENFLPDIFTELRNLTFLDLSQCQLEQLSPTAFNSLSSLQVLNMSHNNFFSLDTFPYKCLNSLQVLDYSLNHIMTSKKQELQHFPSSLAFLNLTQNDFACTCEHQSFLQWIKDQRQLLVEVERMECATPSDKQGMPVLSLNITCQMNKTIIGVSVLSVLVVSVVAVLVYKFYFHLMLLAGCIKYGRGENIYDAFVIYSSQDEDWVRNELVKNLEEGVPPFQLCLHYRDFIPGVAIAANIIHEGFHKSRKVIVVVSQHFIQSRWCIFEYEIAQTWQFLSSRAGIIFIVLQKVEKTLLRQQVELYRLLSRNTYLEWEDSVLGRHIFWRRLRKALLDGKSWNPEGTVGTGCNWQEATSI
T1 sequence (Q9Y6Y9 17-160 partner limits assumed, species assumed): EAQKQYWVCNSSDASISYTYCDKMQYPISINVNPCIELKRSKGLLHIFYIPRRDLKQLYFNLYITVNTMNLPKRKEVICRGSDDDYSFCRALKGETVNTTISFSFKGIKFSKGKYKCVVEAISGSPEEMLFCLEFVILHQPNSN
Experimental: Stimulation of the Toll-like receptor 4 (TLR4) was determined by assessing activation of the transcription factor NF-κB in HEK293 cells that were engineered to express TLR4. Assessment of TLR4 stimulation was based on the use of an NE-κB-inducible secreted alkaline phosphatase (SEAP) reporter system in which the SEAP reporter was under the control of a promoter inducible by NF-κB. Thus, the degree of activation of TLR4 can be indirectly quantified spectrophotometrically by measuring the amount of the SEAP reporter that is produced.
The TLR4-expressing cells were plated in HEK-Blue Detection (Invivogen, San Diego, Calif.) medium in a 96-well plate (25,000-50,000 cells/well). The cells were stimulated with lipopolysaccharides (LPS) alone or in combination with the compound of Example 1. Cell culture without LPS and the compound of Example 1 was defined as baseline control. To test whether the compound of Example 1 could block that activation of the TLR4, the cells were treated with the designated compound (10, 20 or 100 μM) and LPS (final conc. 10 ng/ml/well). After an incubation period (16-24 hours) at 37° C. in a CO2 incubator, the signals of individual samples in 96-well plates were detected at O.D.650 nm with a Molecular Devices SpectraMax i3 Imaging Cytometer. The TLR4 activity was expressed in percentage of LPS alone-stimulated cells minus baseline control.

HEK293 cells = assay: Cell viability (MTT) of the TLR4-expressing HEK293 cells; conditions: percentage of viable LPS-stimulated cells
Experimental: (§1) RAW264.7 cells (1.6×10^5 cells/well) or HEK 293 cells (2.5-5.0×10^4 cells/well) were seeded in 96-well plate overnight and treated with different compounds for 16-24 hours. Cells' growth were determined by MTT-based colorimetric assays. Viability of the test cells treated with vehicle (0.5% DMSO) only was defined as 100% viable. Survival of cells after treatment with DETDs was calculated using the following formula: viable cell number (%)=OD570 (treated cell culture)/OD570 (vehicle control)×100.
The cell viability assay was performed by the MTT method. Cells were incubated with 45 μl of 5 mg/ml MTT for 1 hour at 37° C., and 150 μl of DMSO was added at the end of culture to dissolve the crystals. The signals of individual samples in 96-well plates were detected at O.D.570 nm with a Molecular Devices SpectraMax i3 Imaging Cytometer. Cell viability was expressed in percentage of viable LPS-stimulated cells.

[2] = tested on: mTNF-α secretion from LPS-stimulated RAW264.7 monocytes; assay: LPS induced mTNF-α release from RAW264.7 cells (ELISA); conditions: Mus musculus
Experimental: To confirm whether the inhibitory effect of the selected compounds of example 2.1 (i.e., Compounds 12, 15, 19, 20, 22, 24, 28, 30, 32, 34, 36, 38, 40, 42, 44, 45, 49, 50, 52 and 70) translates to anti-inflammation, they were further tested to see if any of them may suppress mTNF-α secretion from lipopolysaccharide (LPS)-stimulated RAW264.7 monocytes.
To this purpose, RAW264.7 cells were seeded at 1.6×10^5 cells/well into 96-well culture plates. Test compounds (i.e., Compounds 12, 15, 19, 20, 22, 24, 28, 30, 32, 34, 36, 38, 40, 42, 44, 45, 49, 50, 52 and 70, respectively at 10 μM) were added into the culture plates in triplicate and co-cultured at 37° C. in 5% CO2 for 30 minutes. LPS (final conc. 10 ng/ml/well) was then added into the culture plates and the cells were incubated for another 4 hours. At the end of culture, the cultured media were harvested for mTNF-α quantification by ELISA with commercial assay kits (R&D Systems, Minneapolis, Minn.) following the manufacturer's protocol. Signals of the individual samples in 96-well plates were detected at O.D.450 nm/570 nm with a Molecular Devices SpectraMax i3 Imaging Cytometer. The mTNF-α activity was expressed in percentage of viable LPS-stimulated cells without test compound treatment.

RAW264.7 cells = assay: Cell viability (MTT) of RAW264.7 cells; conditions: for toxic activity toward RAW264.7 cells (in words): Table 2, 10 μM; for Cell Viability (%) mean: Test Con. 10 μM, MTT, RAW264.7 cells, percentage of viable LPS-stimulated cells
Experimental: as §1
The cell viability assay was performed by the MTT method, in which cells were incubated with 45 μl of 5 mg/ml MTT for 1 hour at 37° C., and 150 μl of DMSO was added at the end of culture to dissolve the crystals. The signals of individual samples in 96-well plates were detected at O.D.570 nm with a Molecular Devices SpectraMax i3 Imaging Cytometer. Cell viability was expressed in percentage of viable LPS-stimulated cells.

[3] = RAW264.7, Table 2, 10 μM, read-out: inhibition of LPS induced mTNF-α release from RAW264.7 cells
[4] = Test Con. 10 μM, LPS 10 ng/ml, 4 hours, RAW264.7 cells, read-out: mTNF-α inhibition (%) mean

## C=CC(=O)N(c1ccc(F)cc1Cl)S(=O)(=O)c1ccccc1OC(F)(F)F [Compound 26]
[1]
  inhibition at 10 µM: 10.7%
  activity towards TLR-4 (in words): mild or negligible activity
HEK293 cells; Test Con. 10 μM
  Cell Viability (%) mean: 86.8%

## C=CC(=O)N(c1ccc(F)cc1Cl)S(=O)(=O)c1ccccc1[N+](=O)[O-] [Compound 22]
[1]
  inhibition at 10 µM: 63%
  activity towards TLR-4 (in words): moderate inhibitory activity
HEK293 cells; Test Con. 10 μM
  Cell Viability (%) mean: 109.9%
[2]; [3]
  inhibition at 10 µM: ~40%
[2]; [4]
  inhibition at 10 µM: 45.7%
RAW264.7 cells
  toxic activity toward RAW264.7 cells (in words): negligible to no toxic activity
  Cell Viability (%) mean: 96.4%

## C=CC(=O)N1CCC[C@@H]1C(=O)Nc1ccc(F)cc1Cl [Compound 65]
[1]
  inhibition at 10 µM: 15.8%
  activity towards TLR-4 (in words): mild or negligible activity
HEK293 cells; Test Con. 10 μM
  Cell Viability (%) mean: 100.5%

## C=CC(=O)N(c1ccc(F)cc1Cl)S(=O)(=O)c1ccccc1 [Compound 19]
[1]
  inhibition at 10 µM: 100%
  activity towards TLR-4 (in words): strong antagonist
HEK293 cells; Test Con. 10 μM
  Cell Viability (%) mean: 80%
[2]; [3]
  inhibition at 10 µM: 85 to 100%
[2]; [4]
  inhibition at 10 µM: 96.1%
RAW264.7 cells
  Cell Viability (%) mean: 38.1%

## C=C(C)C(=O)Nc1ccccc1S(=O)(=O)Nc1ccc(F)cc1Cl [Compound 45]
[1]
  inhibition at 10 µM: 65.6%
  activity towards TLR-4 (in words): moderate inhibitory activity
HEK293 cells; Test Con. 10 μM
  Cell Viability (%) mean: 100.7%
[2]; [3]
  inhibition at 10 µM: ~40%
[2]; [4]
  inhibition at 10 µM: 41.1%
RAW264.7 cells
  toxic activity toward RAW264.7 cells (in words): negligible to no toxic activity
  Cell Viability (%) mean: 98.3%

## C=CC(=O)N(c1ccc(F)cc1Cl)S(=O)(=O)N1CCC[C@H]1C(=O)OC [Compound 49]
[1]
  inhibition at 10 µM: 76.2%
  activity towards TLR-4 (in words): moderate inhibitory activity
HEK293 cells; Test Con. 10 μM
  Cell Viability (%) mean: 108.5%
[2]; [3]
  inhibition at 10 µM: 85 to 100%
[2]; [4]
  inhibition at 10 µM: 98.8%
RAW264.7 cells
  toxic activity toward RAW264.7 cells (in words): negligible to no toxic activity
  Cell Viability (%) mean: 81.6%

## C/C=C/C(=O)N1CCCc2cccc(S(=O)(=O)Nc3ccc(F)cc3Cl)c21 [Compound 13]
[1]
  inhibition at 20 µM: 10.9%
  activity towards TLR-4 (in words): mild or negligible activity
HEK293 cells; Test Con. 20 μM
  Cell Viability (%) mean: 86.6%

## COC(=O)C1=CCN(CC(=O)Nc2ccc(F)cc2)CC1 [Compound 3]
[1]
  inhibition at 100 µM: 6.8%
  activity towards TLR-4 (in words): mild or negligible activity

## C=CC(=O)N(c1ccc(F)cc1Cl)S(=O)(=O)c1ccccc1C(=O)OC [Compound 24]
[1]
  inhibition at 10 µM: 100%
  activity towards TLR-4 (in words): strong antagonist
HEK293 cells; Test Con. 10 μM
  Cell Viability (%) mean: 88.5%
[2]; [3]
  inhibition at 10 µM: 85 to 100%
[2]; [4]
  inhibition at 10 µM: 96%
RAW264.7 cells
  Cell Viability (%) mean: 54.5%

## C=CC(=O)N(c1ccc(F)cc1Cl)S(=O)(=O)c1c(C)noc1C [Compound 34]
[1]
  inhibition at 10 µM: 100%
  activity towards TLR-4 (in words): strong antagonist
HEK293 cells; Test Con. 10 μM
  Cell Viability (%) mean: 63.0%
[2]; [3]
  inhibition at 10 µM: 85 to 100%
[2]; [4]
  inhibition at 10 µM: 98.5%
RAW264.7 cells
  Cell Viability (%) mean: 53.9%

## C=CC(=O)N1CCC[C@H]1C(=O)Nc1ccc(F)cc1Cl [Compound 61]
[1]
  inhibition at 10 µM: 3.7%
  activity towards TLR-4 (in words): mild or negligible activity
HEK293 cells; Test Con. 10 μM
  Cell Viability (%) mean: 93.4%

## C=CC(=O)N(c1ccc(F)cc1Cl)S(=O)(=O)Cc1ccccc1 [Compound 36]
[1]
  inhibition at 10 µM: 67.3%
  activity towards TLR-4 (in words): moderate inhibitory activity
HEK293 cells; Test Con. 10 μM
  Cell Viability (%) mean: 107.0%
[2]; [3]
  inhibition at 10 µM: ~13%
[2]; [4]
  inhibition at 10 µM: 13%
RAW264.7 cells
  toxic activity toward RAW264.7 cells (in words): negligible to no toxic activity
  Cell Viability (%) mean: 102.8%

## C=C(C)C(=O)N(c1ccc(F)cc1Cl)S(=O)(=O)c1ccccc1 [Compound 20]
[1]
  inhibition at 10 µM: 60.1%
  activity towards TLR-4 (in words): moderate inhibitory activity
HEK293 cells; Test Con. 10 μM
  Cell Viability (%) mean: 90.4%
[2]; [3]
  inhibition at 10 µM: ~70%
[2]; [4]
  inhibition at 10 µM: 70.9%
RAW264.7 cells
  toxic activity toward RAW264.7 cells (in words): negligible to no toxic activity
  Cell Viability (%) mean: 100.0%

## C=CC(=O)N1CCCc2cccc(S(=O)(=O)Nc3ccc(F)cc3Cl)c21 [Compound 12]
[1]
  inhibition at 10 µM: 98.9%
  activity towards TLR-4 (in words): strong antagonist
HEK293 cells; Test Con. 10 μM
  Cell Viability (%) mean: 72%
[2]; [3]
  inhibition at 10 µM: 85 to 100%
[2]; [4]
  inhibition at 10 µM: 100%
RAW264.7 cells
  Cell Viability (%) mean: 25.5%

## C=CC(=O)N(c1ccc(F)cc1Cl)S(=O)(=O)c1c(C)oc(C)c1C(=O)OC [Compound 42]
[1]
  inhibition at 10 µM: 100%
  activity towards TLR-4 (in words): strong antagonist
HEK293 cells; Test Con. 10 μM
  Cell Viability (%) mean: 72.4%
[2]; [3]
  inhibition at 10 µM: 85 to 100%
[2]; [4]
  inhibition at 10 µM: 98.6%
RAW264.7 cells
  Cell Viability (%) mean: 27.8%

## O=S(=O)(Nc1ccc(F)cc1Cl)c1cccc2c1N(S(=O)(=O)CCl)CCC2 [Compound 16]
[1]
  inhibition at 20 µM: 18%
  activity towards TLR-4 (in words): mild or negligible activity
HEK293 cells; Test Con. 20 μM
  Cell Viability (%) mean: 96.5%

## C=CC(=O)N1CCN(CC(=O)Nc2ccc(F)cc2)CC1 [Compound 6]
[1]
  inhibition at 100 µM: 17.8%
  activity towards TLR-4 (in words): mild or negligible activity

## C=CC(=O)N1CCCC[C@H]1C(=O)N(C)c1ccc(F)cc1Cl [Compound 57]
[1]
  inhibition at 10 µM: 17.5%
  activity towards TLR-4 (in words): mild or negligible activity
HEK293 cells; Test Con. 10 μM
  Cell Viability (%) mean: 95.9%
